These results are taken from ChEMBL document CHEMBL1121823, “A novel connector linkage applicable in prodrug design” (J Med Chem, 1981).

Each structure is given as a SMILES string.

Assay type in all cases: ADME
A short description of data set [1]: Half-life in aqueous buffer (0.05 M bistris, pH 6.9) in the absence of trypsin was determined at 25 degree C. The note with it: aqueous buffer without trypsin.
Data set [2] is described as follows: Half-life in aqueous buffer (0.05 M bistris, pH 6.9) in the presence of trypsin (2.5 ug/ml) was determined at 25 degree C.
Data set [3] in a line: Half-life was determined. The note with it: human.

What is called half-life is the time needed for the level to fall by half in the phase considered. With `CC(C)(C)OC(=O)NC(CCCCN)C(=O)Nc1ccc(COC(=O)Nc2ccc([N+](=O)[O-])cc2)cc1` (stereo not drawn), the half-life in data set [1] was 40 h; in data set [2], 11 min.

The compound `NC(=O)OCc1ccc(N)cc1` registered a half-life in data set [3] of 1.5 min.
